Assay results from ChEMBL document CHEMBL4346764, “Design, synthesis, and evaluation of N-(4-(4-phenyl piperazin-1-yl)butyl)-4-(thiophen-3-yl)benzamides as selective dopamine D3 receptor ligands” (Bioorg Med Chem Lett, 2019).

Experiments:
[1] = AUC in Sprague-Dawley rat at 1 mg/kg, iv by LC/MS/MS analysis; assay type: ADME, organism-based; details: in vivo
[2] = Volume of distribution at steady state in Sprague-Dawley rat at 1 mg/kg, iv by LC/MS/MS analysis; assay type: ADME, organism-based; details: in vivo, read-out: Vdss

Row | AUC [1] | Vd [2] | Compound
1 | 220 ng·h/mL | 28.6 L/kg | N#Cc1cccc(N2CCN(CCCCNC(=O)c3ccc(-c4ccsc4)cc3)CC2)c1
2 | 210 ng·h/mL | 55.7 L/kg | O=C(NCCCCN1CCN(c2cc(Cl)cc(Cl)c2)CC1)c1ccc(-c2ccsc2)cc1
